# In PubChem BioAssay (NCI):
#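 Growth conditions: 96-well plates. Treatment: test compound, 48 hours, 5 concentrations. Analysis: linear interpolation between bracketing concentrations; unreached endpoints set to highest concentration. TGI: concentration producing complete growth inhibition.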
# What was measured:
# Assay in all cases: DTP human tumour cell line panel, 48 h
# [1] = tested on: SW-620 colon
# [2] = tested on: DLD-1 colon
# [3] = tested on: LOX IMVI melanoma
# [4] = tested on: OVCAR-5 ovarian
# [5] = tested on: M14 melanoma
# [6] = tested on: KM20L2 colon
# [7] = tested on: SK-MEL-5 melanoma
# [8] = tested on: HCC-2998 colon
# [9] = tested on: SNB-19 CNS
# [10] = tested on: HOP-92 NSCLC
# [11] = tested on: SN12C renal
# [12] = tested on: HOP-62 NSCLC
# [13] = tested on: UACC-62 melanoma
# [14] = tested on: A549 NSCLC
# [15] = tested on: RPMI-8226 leukemia
# [16] = tested on: U251 CNS
# [17] = tested on: K-562 leukemia
# [18] = tested on: 786-0 renal
# [19] = tested on: SF-539 CNS
# [20] = tested on: IGROV1 ovarian
# [21] = tested on: SNB-75 CNS
# [22] = tested on: SK-OV-3 ovarian
# [23] = tested on: CAKI-1 renal
# [24] = tested on: SR leukemia
# [25] = tested on: HL-60(TB) leukemia
# [26] = tested on: OVCAR-8 ovarian
# [27] = tested on: SK-MEL-28 melanoma
# [28] = tested on: TK-10 renal
# [29] = tested on: MOLT-4 leukemia
# [30] = tested on: HCT-15 colon
# [31] = tested on: UACC-257 melanoma
# [32] = tested on: UO-31 renal
# [33] = tested on: HCT-116 colon
# [34] = tested on: MALME-3M melanoma
# [35] = tested on: ACHN renal
# [36] = tested on: OVCAR-3 ovarian
# [37] = tested on: NCI-H226 lung
# [38] = tested on: CCRF-CEM leukemia
# [39] = tested on: HOP-18 NSCLC
# [40] = tested on: LXFL 529 NSCLC
# [41] = tested on: SF-268 CNS
# [42] = tested on: HT29 colon
# [43] = tested on: SK-MEL-2 melanoma
# [44] = tested on: RXF 393 renal
# [45] = tested on: COLO 205 colon
# [46] = tested on: DMS 273 small cell lung
# [47] = tested on: OVCAR-4 ovarian
# [48] = tested on: KM12 colon
# [49] = tested on: SF-295 CNS
# [50] = tested on: NCI-H23 lung
# [51] = tested on: NCI-H460 lung
# [52] = tested on: NCI-H522 lung
# [53] = tested on: EKVX NSCLC
smiles,measurement,setting,value
CCCCCCCCCC(=O)CC(=O)c1ccc(O)cc1O,TGI,[1],> 100 µM
same,TGI,[2],> 100 µM
same,TGI,[3],38.7 µM
same,TGI,[4],94 µM
same,TGI,[5],54.7 µM
same,TGI,[6],> 100 µM
same,TGI,[7],31.5 µM
same,TGI,[8],46.3 µM
same,TGI,[9],> 100 µM
same,TGI,[10],79.4 µM
same,TGI,[11],74.4 µM
same,TGI,[12],46.5 µM
same,TGI,[13],43 µM
same,TGI,[14],> 100 µM
same,TGI,[15],59.6 µM
same,TGI,[16],64.9 µM
same,TGI,[17],> 100 µM
same,TGI,[18],> 100 µM
same,TGI,[19],96.5 µM
same,TGI,[20],> 100 µM
same,TGI,[21],95.5 µM
same,TGI,[22],> 100 µM
same,TGI,[23],85.9 µM
same,TGI,[24],44.9 µM
same,TGI,[25],53.9 µM
same,TGI,[26],67.9 µM
same,TGI,[27],> 100 µM
same,TGI,[28],> 100 µM
same,TGI,[29],49.7 µM
same,TGI,[30],> 100 µM
same,TGI,[31],71.2 µM
same,TGI,[32],98 µM
same,TGI,[33],66.6 µM
same,TGI,[34],> 100 µM
same,TGI,[35],89.3 µM
same,TGI,[36],45 µM
same,TGI,[37],84.9 µM
same,TGI,[38],> 100 µM
same,TGI,[39],81.9 µM
same,TGI,[40],> 100 µM
same,TGI,[41],> 100 µM
same,TGI,[42],> 100 µM
same,TGI,[43],49.9 µM
same,TGI,[44],72.1 µM
same,TGI,[45],> 100 µM
same,TGI,[46],74.1 µM
same,TGI,[47],> 100 µM
same,TGI,[48],61 µM
same,TGI,[49],70.1 µM
same,TGI,[50],59.8 µM
same,TGI,[51],> 100 µM
same,TGI,[52],48.2 µM
same,TGI,[53],73 µM
